# Source: patent publication US20250288583A1, “Treatment of Mucus Hypersecretion” (priority 2024, published 2025)
# Entries after “also recorded” stand apart in the source; their conditions may differ.
# What was measured:
# [1] = test system: philtrum skin; assay: Cooling duration bioassay on philtrum skin; format: in vivo, human
# Source text: (§1) FIG. 1. Comparison of cooling duration of various p-menthanecarboxamide analogs on philtrum skin versus ocular margins. The philtrum skin is keratinized, but the ocular margins are not. The test substances numbered 1 to 11 are: D-Ala-OiPr, Gly-OiPr, D-Ala-OEt, D-Ala-OMe, D-Ala-GlynPr, GlynPr, D-Ala-OnBu, GlynBu, GlyOEt, L-Ala-OEt, and N-Me-D-Ala-OEt, respectively. Two outliers (1 and 2) were identified as preferred embodiments because they preferentially cool the ocular margins. The nasal cavity surfaces like the ocular margins are not keratinized.
# (§2) Cooling agents have been assayed in various ways depending on intended use. For example, for the skin the test substance can be applied on philtrum skin, using descriptions of coolness on a scale of 0 to 3. For the ocular surface, the active ingredient can be applied to the closed eyelids using a wipe. In the oral cavity, drug applications are on the posterior dorsal surface of the tongue. For the oropharyngeal surface, the cooling agent may be applied as an orally disintegrating tablet. The ability of a cooling agent to antagonize a noxious stimuli may also be tested, using nociception from citric acid or chili pepper sauce. Responses are usually measured using a Visual Analog Scale with a numerical rating. For nasal responses, however, such procedures have not been standardized. Some endpoints to consider are open and comfortable breathing, the presence or absence of sniffles, and the secretion of phlegm.
# [2] = test system: ocular margins; assay: Cooling duration bioassay on eyelids/ocular margins; format: in vivo, human; conditions: for Duration of effects on the ocular margins, on average: test concentration 1 mg/mL
# Source text: as §1, §2
# [3] = molecular target: T1, hTRPM8 channel (Homo sapiens, UniProt Q7Z2W7); assay: TRPM8 receptor assay, calcium entry (Fluo-8, FLIPR) in transfected CHO cells; format: cell-based; conditions: for Potency Relative to L-menthol: ratio of TRPM8 EC50 values, menthol = 1.0
# T1 construct: host or cells: CHO cells
# [4] = test system: ostiomeatal complex; assay: Case studies: nebulized cooling agent in subjects with rhinitis and rhinosinusitis; format: in vivo, human; conditions: for Relief of stuffiness and breathing: NasoNeb delivery in subjects with rhinosinusitis
# Source text: Eight subjects with rhinitis and rhinosinusitis volunteered to test cooling agents delivered with the NasoNeb® nebulizer (FIG. 3). The results were clear, robust, and evident. No statistical analysis was necessary. In a 3 to 5-day course of nebulization t.i.d., all subjects reported the ability to manage and control stuffed-up breathing in their activities. All reported comfortable sleep. The sounds of sniffling and congestion of the nose (“sniffles”), snorting, or gurgling were still present, but to a lesser degree. The subject felt it was easier to blow out liquids from the nasal cavity onto a tissue, and the volume and frequency of blowing decreased. Viscous yellow mucus was less in volume and density. The number of wipes deposited daily into a waste basket decreased by >50%. The subjects-were cheerful and enthusiastic because nasal discomfort was under control. As one subject remarked: “The stuffed-up nose problem is now history!” Severat of these cases are reported below as “Case Studies.”
# The subject was given a NasoNeb® nebulizer (unavailable in China) and five individual bottles containing 15 mL of a 1% GlyOiPr solution (suspended in 2% Tween 80, 5% ethanol, and 92% water). They were shown how to load the NasoNeb canister with about 2 mL of liquid and activate the device for a 3-second dose into each nostril. The recommended dosage was three times a day, starting in the morning and at about 6-hour intervals, and for five days.
# The subject agreed to using the NasoNeb nebulizer with a cooling agent. They were given a NasoNeb nebulizer and three bottles, each containing 15 ml of a 1% GlyOiPr solution (suspended in 2% Tween 80, 5% ethanol, and 92% water). They were shown how to load the NasoNeb canister with about 2 mL of liquid and activate the device for a 3-second dose into each nostril. The recommended dosage was three times a day, starting in the morning and at about 6-hour intervals, and for five days. After a 5-day trial, the subject noted a significant improvement in sleep and comfortable breathing. […] Their headaches were gone, and their appetite improved. They were advised to continue using the Nebulizer/coolant for another week and then on an as-needed basis. Their family has noticed that the subject has become less withdrawn, more engaging, and interested in their surroundings.
# The subject volunteered for a trial with GlyOiPr. They were given a NasoNeb® machine and a plastic squeeze bottle containing 50 mL of GlyOiPr at 3 mg/mL suspended in 1% ethanol/2% polysorbate 80. They learned how to load the canister and activate the pump. Then, they were instructed to rinse their nose thoroughly first thing in the morning and then use the Nebulizer at 5 sec per nostril to deliver the solution. The procedure was to be repeated at 2 hours and 5 hours later to total three daily activations. The subject was interviewed after dosing for three days. They said breathing was much easier at night after the dosing, and they slept well. Nasal secretions were still present but less in volume. […] They were encouraged to use the Nebulizer as needed but not to exceed three daily doses. Three weeks after the start of the experiment, they reported that they were in complete control of their rhinitis. They would do a single dose at night before sleep and one in the morning when needed. They no longer felt congested, and the headaches were gone. The slimy phlegm in the nostrils was gone, and crusting was absent. Their nose felt clean. Their social life improved.
# Their main complaint was episodes at night when they would wake up and not be able to breathe comfortably. Sleep apnea and lung disorders were ruled out, and the diagnosis was rhinosinusitis. This was confirmed by a computerized tomography scan and endoscopic examination by a qualified ENT specialist. They agreed to test the preferred embodiments GlyOnPr, GlyOiPr, D-Ala-OnPr, and D-Ala-OiPr systematically, one after the other.
# [5] = molecular target: T2, TRPA1 (Homo sapiens, UniProt O75762); assay: TRPA1 specificity assay in transfected cells; format: cell-based; conditions: FIG. 5; mustard oil positive control
# T2 construct: expressed in transfected cells
# T2 sequence (O75762 whole entry, species assumed): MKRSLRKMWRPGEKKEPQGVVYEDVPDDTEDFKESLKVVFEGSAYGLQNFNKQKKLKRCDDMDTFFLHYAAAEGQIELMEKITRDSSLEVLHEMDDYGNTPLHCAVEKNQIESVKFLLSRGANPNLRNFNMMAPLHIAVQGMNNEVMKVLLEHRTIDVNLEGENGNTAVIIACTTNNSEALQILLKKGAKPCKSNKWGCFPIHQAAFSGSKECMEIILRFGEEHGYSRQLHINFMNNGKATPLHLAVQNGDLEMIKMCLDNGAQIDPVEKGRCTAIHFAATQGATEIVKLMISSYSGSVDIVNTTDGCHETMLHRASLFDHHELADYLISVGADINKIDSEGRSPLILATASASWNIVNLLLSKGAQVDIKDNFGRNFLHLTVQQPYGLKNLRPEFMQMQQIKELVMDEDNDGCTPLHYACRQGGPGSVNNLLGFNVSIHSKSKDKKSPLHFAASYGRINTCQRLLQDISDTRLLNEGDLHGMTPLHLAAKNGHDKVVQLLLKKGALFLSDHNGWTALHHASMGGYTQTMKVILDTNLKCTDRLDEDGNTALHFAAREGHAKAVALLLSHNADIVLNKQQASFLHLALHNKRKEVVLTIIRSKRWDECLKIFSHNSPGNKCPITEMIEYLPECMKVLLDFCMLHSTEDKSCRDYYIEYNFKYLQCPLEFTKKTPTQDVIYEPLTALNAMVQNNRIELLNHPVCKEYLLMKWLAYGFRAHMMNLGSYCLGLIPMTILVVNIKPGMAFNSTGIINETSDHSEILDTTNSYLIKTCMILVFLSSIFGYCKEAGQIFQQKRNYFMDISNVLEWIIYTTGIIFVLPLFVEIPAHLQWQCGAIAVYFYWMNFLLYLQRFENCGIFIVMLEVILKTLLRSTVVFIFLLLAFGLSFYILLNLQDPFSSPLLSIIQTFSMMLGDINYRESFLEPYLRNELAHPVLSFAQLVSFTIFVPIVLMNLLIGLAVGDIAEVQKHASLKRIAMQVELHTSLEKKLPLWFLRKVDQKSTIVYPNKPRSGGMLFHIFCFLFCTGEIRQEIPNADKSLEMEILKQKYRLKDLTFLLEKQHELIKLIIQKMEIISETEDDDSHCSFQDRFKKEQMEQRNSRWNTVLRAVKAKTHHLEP
# T1 sequence (Q7Z2W7 whole entry): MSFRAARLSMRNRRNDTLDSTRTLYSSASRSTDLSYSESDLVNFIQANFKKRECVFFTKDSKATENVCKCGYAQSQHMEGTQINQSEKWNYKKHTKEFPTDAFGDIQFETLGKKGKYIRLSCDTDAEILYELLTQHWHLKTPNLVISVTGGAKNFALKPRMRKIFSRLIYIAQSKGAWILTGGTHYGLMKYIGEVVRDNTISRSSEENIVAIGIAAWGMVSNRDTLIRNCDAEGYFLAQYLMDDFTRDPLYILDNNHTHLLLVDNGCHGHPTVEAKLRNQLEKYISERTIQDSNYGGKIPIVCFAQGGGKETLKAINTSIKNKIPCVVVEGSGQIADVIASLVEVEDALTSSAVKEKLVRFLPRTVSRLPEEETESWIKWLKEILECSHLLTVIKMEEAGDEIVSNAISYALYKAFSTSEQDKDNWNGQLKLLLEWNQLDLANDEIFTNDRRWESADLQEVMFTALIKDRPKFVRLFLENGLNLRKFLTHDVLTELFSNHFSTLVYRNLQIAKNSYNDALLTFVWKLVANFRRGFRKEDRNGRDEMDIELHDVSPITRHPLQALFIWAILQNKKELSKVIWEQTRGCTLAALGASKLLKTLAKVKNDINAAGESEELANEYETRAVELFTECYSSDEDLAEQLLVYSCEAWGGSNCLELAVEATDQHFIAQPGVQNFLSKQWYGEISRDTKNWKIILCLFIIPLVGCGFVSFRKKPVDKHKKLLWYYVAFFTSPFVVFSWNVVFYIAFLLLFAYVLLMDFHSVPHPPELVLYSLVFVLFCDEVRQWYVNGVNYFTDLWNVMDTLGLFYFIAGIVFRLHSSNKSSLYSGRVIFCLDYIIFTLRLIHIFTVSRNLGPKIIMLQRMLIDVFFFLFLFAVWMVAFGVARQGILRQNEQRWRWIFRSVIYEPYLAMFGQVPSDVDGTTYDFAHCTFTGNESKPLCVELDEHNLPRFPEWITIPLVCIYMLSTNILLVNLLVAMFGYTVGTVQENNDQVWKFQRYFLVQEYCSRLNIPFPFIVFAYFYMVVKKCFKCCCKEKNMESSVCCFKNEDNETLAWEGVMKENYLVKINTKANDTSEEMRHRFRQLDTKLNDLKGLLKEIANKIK
Structure (SMILES),"Philtrum Skin ([1]; Table 6, cooling duration, keratinized skin) [min]","Eyelids/Ocular Surface ([2]; Table 6, cooling duration, non-keratinized) [min]","Duration of effects on the ocular margins, on average [2] [h]","EC50 ([3]; CHO cells transfected with hTRPM8, Fluo-8 calcium kit, FLIPR) [nM]",Potency Relative to L-menthol [3],Relief of stuffiness and breathing [4],Response of cells transfected with TRPA1 [5],"Philtrum Skin ([1]; Table 7, Gly esters) [min]","Ocular Surface ([2]; Table 7, Gly esters) [min]",Duration on the ocular surface ([2]; test concentration increased from 1 mg/mL to 1.5 mg/mL),Activity on TRPM8 transfected cells ([3]; FIG. 5),Number of Kleenex tissues used after treatment ([4]; GlyOiPr by NasoNeb three times a day),"Decrease in number of wipes used to blow the nose ([4]; nebulization three times a day, several days)"
"CC(C)OC(=O)[C@@H](C)NC(=O)[C@@H]1C[C@H](C)CC[C@H]1C(C)C [D-Ala-OiPr, (R)-2-[((1R,2S,5R)-2-isopropyl-5-methyl-cyclohexanecarbonyl)amino]-propionic acid i-propyl ester]",34,360,~5,260,14.6,provided relief,inactive,,,,,,
"CC(C)OC(=O)CNC(=O)[C@@H]1C[C@H](C)CC[C@H]1C(C)C [GlyOiPr, [((1R,2S,5R)-2-isopropyl-5-methyl-cyclohexanecarbonyl)-amino]-acetic acid isopropyl ester]",,,~5,,7.6,immediate sensation of comfortable cooling in the nose and the ability to have unimpeded breathing; also recorded: provided relief,do not respond; also recorded: activates TRPM8 but not TRPV1 or TRPA1,27,300,about 6.5 hours,active,about five per day; also recorded: decline by half,at least 50%
